The supplement of paper PMC8671470

Experiments:
Conditions in all cases: 72 h
BV-173 = test system: BV-173
In short: (§1)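 Fifteen myeloid leukaemia lines in RPMI 1640 were treated for 72 h at 37 °C and 5% CO2 with five tenfold doses from 1 to 10,000 nM, in duplicate. ATP luminescence was normalised to vehicle and to a positive control at 10 µM, then fitted with a four-parameter log-logistic model. The IC50 came from these fits.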

HEL = test system: HEL
In short: as §1

K-562 = test system: K-562
In short: as §1

KU-812 = test system: KU-812
In short: as §1

LAMA-84 = test system: LAMA-84
In short: as §1

MOLM-13 = test system: MOLM-13
In short: as §1

MV4-11 = test system: MV4-11
In short: as §1

Mono-Mac-6 = test system: Mono-Mac-6
In short: as §1

SHI-1 = test system: SHI-1
In short: as §1

THP-1 = test system: THP-1
In short: as §1

[1] = test system: myeloid leukemia patient primary cells Pat.10; experiment: cell viability (% survival relative to DMSO control); higher = less cytotoxic
In short: (§2)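 Thawed mononuclear cells from AML or CML patients were purified on Ficoll and cultured for 72 h in RPMI 1640 with 10% FBS, at 10,000 cells/well, on 384-well plates carrying 70 pre-printed compounds at 1–10,000 nM in five tenfold steps, in duplicate. Viability came from CellTiter-Glo, normalised against DMSO and against 10 μM proteasome inhibitor. Any area under the curve given was derived from log-logistic curve fits in the drc and PharmacoGx R packages, and these fits had four parameters.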

[2] = test system: myeloid leukemia patient primary cells Pat.11; experiment: as above
In short: as §2

[3] = test system: myeloid leukemia patient primary cells Pat.12; experiment: as above
In short: as §2

[4] = test system: myeloid leukemia patient primary cells Pat.13; experiment: as above
In short: as §2

[5] = test system: myeloid leukemia patient primary cells Pat.14; experiment: as above
In short: as §2

[6] = test system: myeloid leukemia patient primary cells Pat.15; experiment: as above
In short: as §2

[7] = test system: myeloid leukemia patient primary cells Pat.1; experiment: as above
In short: as §2

[8] = test system: myeloid leukemia patient primary cells Pat.2; experiment: as above
In short: as §2

[9] = test system: myeloid leukemia patient primary cells Pat.3; experiment: as above
In short: as §2

[10] = test system: myeloid leukemia patient primary cells Pat.4; experiment: as above
In short: as §2

[11] = test system: myeloid leukemia patient primary cells Pat.5; experiment: as above
In short: as §2

[12] = test system: myeloid leukemia patient primary cells Pat.6; experiment: as above
In short: as §2

[13] = test system: myeloid leukemia patient primary cells Pat.7; experiment: as above
In short: as §2

[14] = test system: myeloid leukemia patient primary cells Pat.8; experiment: as above
In short: as §2

[15] = test system: myeloid leukemia patient primary cells Pat.9; experiment: as above
In short: as §2

HL-60 = experiment: area under dose-response curve (viability, 1 nM-10 uM) (fraction (0-1)); higher = more sensitive
In short: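 A rescreen of the full library used HL-60 cells in RPMI 1640 with 10% FBS on 384-well plates, run in duplicate at five tenfold concentrations (1–10,000 nM). Each screen included DMSO or 100 nM of one of three metabolic inhibitors and ran 72 h at 37 °C, 5% CO2. CellTiter-Glo viability was scaled between DMSO and 10 μM proteasome-inhibitor wells. Any area under the curve comes from four-parameter log-logistic fits with drc and PharmacoGx.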

Cc1c2c(=O)n(-c3ccccc3Cl)[nH]c2cc(=O)n1Cc1ccccn1
Conditions	IC50 (cell viability) [µM]
BV-173	> 10
HEL	> 10
K-562	6.52
KU-812	> 10
LAMA-84	> 10
MOLM-13	2.76
MV4-11	7.5
Mono-Mac-6	> 10
SHI-1	> 10
THP-1	> 10

cell viability [%]
Conditions	1 nM	10 nM	100 nM	1000 nM	10000 nM
[1]	27.2	64.5	42.2	86.1	42.3
[2]	88	95.7	88.1	99.3	99.1
[3]	89.5	97.6	99.3	88.3	92.2
[4]	66.5	80	92.6	88.9	92.5
[5]	28.5	69.8	64.5	99.6	> 100
[6]	77.3	83.4	81.8	95.5	93
[7]	53.7	89.9	91.5	96.7	85.5
[8]	86.2	92.7	88.6	94.6	> 100
[9]	25.8	94.3	92.2	> 100	> 100
[10]	63.6	90.8	81.5	98.5	72.8
[11]	3.33	9.25	36.7	81.3	85.9
[12]	84.6	91.1	91.7	> 100	> 100
[13]	13.2	82.9	63.7	91	> 100
[14]	79.7	92.3	86.6	96.9	75.9
[15]	1.24	62.4	54.9	100	100

C=CCN(C)CCCCCCOc1ccc(C(=O)c2ccc(Br)cc2)c(F)c1.O=C(O)/C=C/C(=O)O [Ro 48-8071 fumarate]
Conditions	IC50 (cell viability) [µM]
BV-173	1.79
HEL	> 10
K-562	2.06
KU-812	9.97
LAMA-84	8.49
MOLM-13	> 10
MV4-11	5.95
Mono-Mac-6	> 10
SHI-1	> 10
THP-1	> 10

Conditions	area under dose-response curve, co-treatment: AZD3965 100 nM	area under dose-response curve, co-treatment: DMSO vehicle	area under dose-response curve, co-treatment: GSK2194069 100 nM	area under dose-response curve, co-treatment: pictilisib 100 nM	cell viability, 1 nM [%]	cell viability, 10 nM [%]	cell viability, 100 nM [%]	cell viability, 1000 nM [%]	cell viability, 10000 nM [%]
HL-60	0.0549	< 0.0301	0.0331	0.112	–	–	–	–	–
[1]	–	–	–	–	80.8	61.7	63.7	73.8	< 0
[2]	–	–	–	–	98.4	100	97.9	96.5	72.2
[3]	–	–	–	–	96.5	91.5	93.7	82.9	77.6
[4]	–	–	–	–	92.9	98.7	82.6	85.6	51.7
[5]	–	–	–	–	93.2	99.3	91.9	99.6	21
[6]	–	–	–	–	84	94.1	99.4	94.3	56.6
[7]	–	–	–	–	97.8	94.5	97.4	82.7	37.2
[8]	–	–	–	–	98.4	99.7	97.6	97.1	71.1
[9]	–	–	–	–	55	59.7	28.2	21.8	6.91
[10]	–	–	–	–	86.4	92	88.3	88.5	56.3
[11]	–	–	–	–	> 100	61.6	73.3	73.5	0.265
[12]	–	–	–	–	99.9	> 100	87.1	92.9	37.7
[13]	–	–	–	–	> 100	> 100	85.7	61.7	< 0
[14]	–	–	–	–	78.8	96.9	94.9	92.1	75.8
[15]	–	–	–	–	90.4	69.8	87.2	84.8	< 0
